# Results taken from patent US20130029981A1, “COMPOUNDS, COMPOSITIONS, AND METHODS FOR CONTROLLING BIOFILMS” (Katholieke Universiteit Leuven, priority 2009, published 2013).
# Where two headings read alike, the source gives them in different places.
# Legend:
# S. Typhimurium ATCC14028 = assay: Static peg assay for prevention of biofilm formation (Calgary device, crystal violet); type: cell-based, Salmonella Typhimurium; details: 25° C.
# Experimental: (§1) Evaluation of the biofilm inhibitory activity of some substituted 2-amino-1H-imidazoles of the invention was carried out by growing up biofilms of S. Typhimurium ATCC14028 or SL1344 or Pseudomonas aeruginosa PA14 in the presence of different concentrations (1/2 dilution series) of biofilm inhibitors, by using the Calgary biofilm device. After an incubation period of 24 hours at 25° C. or 37° C. or 48 hours at 16° C. the biofilms were visualized by crystal violet staining. In the next step the stain was extracted from the biofilm with 30% acetic acid. The absorbance of the resolubilized stain at 570 nm is a measure of the amount of biofilm formed.
# In examples 2 and 3, the following materials and methods were used.
# The device used for biofilm formation is a platform carrying 96 polystyrene pegs (Nunc no. 445497) that fits as a microtiter plate lid with a peg hanging into each microtiter plate well (Nunc no. 269789). Biofilm formation assays were carried out at 16° C., 25° C. and 37° C.
# For biofilm assays at 16° C. and 25° C., two-fold serial dilutions of the compounds in 100 μl liquid TSB 1/20 broth per well were prepared in the microtiter plate. Subsequently, an overnight culture of S. Typhimurium ATCC14028 or SL1344 (grown up in LB medium) was diluted 1:100 into TSB 1/20 broth and 100 μl (ca. 10^6 cells) was added to each well of the microtiter plates, resulting in a total amount of 200 μl medium per well. The pegged lid was placed on the microtiter plate and the plate was incubated for 48 hours at 16° C. or for 24 hours at 25° C. without shaking. During this incubation period biofilms were formed on the surface of the pegs. In case of the assay at 16° C., after 24 hours the lid was transferred into a new plate with medium and the specific molecules used for testing. […] For quantification of biofilm formation, the pegs were washed once in 200 μl phosphate buffered saline (PBS). The remaining attached bacteria were stained for 30 minutes with 200 μl 0.1% (w/v) crystal violet in an isopropanol/methanol/PBS solution (v/v 1:1:18). Excess stain was rinsed off by placing the pegs in a 96-well plate filled with 200 μl distilled water per well. After the pegs were air dried (30 min), the dye bound to the adherent cells was extracted with 30% glacial acetic acid (200 μl). The OD570 of each well was measured using the VERSAmax microtiter plate reader. The IC50 value for each compound was determined from concentration gradients in two or three independent experiments (with 2 or 3 repeats per experiment), by using the GraphPad software of Prism.
# For biofilm assays at 37° C., two-fold serial dilutions of the compounds in 50 μl liquid CFA broth per well were prepared in the microtiter plate. Subsequently, an overnight culture of S. Typhimurium ATCC 14028 was diluted 1:100 into CFA broth and 100 μl (ca. 10^6 cells) was added to each well of the microtiter plates, resulting in a total amount of 150 μl medium per well. The pegged lid was placed on the microtiter plate and the plate was incubated for 24 hours at 37° C. without shaking. During incubation the plates were placed in a humidity controlled container to prevent evaporation of the growth medium. Quantification of biofilm formation was performed similarly as described above for the assays at 16° C. and 25° C.
# as §1, with “imidazo[1,2-a]pyrimidinium bromide salts” for “2-amino-1H-imidazoles”
# [1] = system: Pseudomonas aeruginosa PA14; assay: as above; type: cell-based; details: 25° C.
# Experimental: as §1
# The device used for Pseudomonas aeruginosa biofilm formation is the same platform carrying polystyrene pegs as described above for Salmonella Typhimurium.
# Two-fold serial dilutions of the compounds in 100 μl liquid broth per well were prepared in the microtiter plate. Subsequently, an overnight culture of P. aeruginosa PA14 (grown up in TSB medium) was diluted 1:100 into liquid broth and 100 μl was added to each well of the microtiter plates, resulting in a total amount of 200 μl medium per well. The pegged lid was placed on the microtiter plate and the plate was incubated for 24 hours at 25° C., 30° C. or 37° C. without shaking. During this incubation period biofilms were formed on the surface of the pegs. The liquid broth used for the tests at 25° C. was TSB 1/20. The tests at 37° C. were performed in CFA and/or LBNS broth. During incubation at 30° C. and 37° C. the plates were placed in a humidity controlled container to prevent evaporation of the growth medium. Quantification of biofilm formation was performed similarly as described previously for the S. Typhimurium biofilm assays.
# as §1, with “imidazo[1,2-a]pyrimidinium bromide salts” for “2-amino-1H-imidazoles”
# as §1, with “substituted imidazo[1,2-a]-pyrimidinium bromide and perchlorate salts produced according to examples 3 and 5” for “substituted 2-amino-1H-imidazoles of the invention”, “C.” for “C. or 37° C. or 48 hours at 16° C.”, “nm was taken as” for “nm is”
# [2] = Table 16, read-out: S. Typhimurium IC50 (biofilm formation)
# [3] = Table 16, read-out: P. aeruginosa IC50 (biofilm formation)
# [4] = 24 hours, Table 15, read-out: (1) IC50 (biofilm inhibition)
# [5] = 24 hours, Table 15, read-out: (2) IC50 (biofilm inhibition)
Compound,IC50 (S. Typhimurium ATCC14028; [2]),"IC50 [1, 3]",IC50 (S. Typhimurium ATCC14028; [4]),"IC50 [1, 5]","IC50 (S. Typhimurium ATCC14028; strain not given, read-out: IC(50), preventive activity against S. typhimurium biofilms)"
CN1c2nccc[n+]2CC1(O)c1ccccc1 (racemic) [Compound 1],> 800 µM,212 µM,–,–,–
CC(C)N1c2nccc[n+]2CC1(O)c1ccccc1 (racemic) [Compound 2],540 µM,> 400 µM,–,–,–
CCCCN1c2nccc[n+]2CC1(O)c1ccccc1 (racemic) [Compound 3],410 µM,> 400 µM,–,–,–
CC(C)CN1c2nccc[n+]2CC1(O)c1ccccc1 (racemic) [Compound 4],131 µM,289 µM,–,–,–
CCCCCN1c2nccc[n+]2CC1(O)c1ccccc1 (racemic) [Compound 5],278 µM,565 µM,–,–,–
CCCCCCN1c2nccc[n+]2CC1(O)c1ccccc1 (racemic) [Compound 6],102 µM,406 µM,102 µM,3.13 µM,–
CCCCCCCN1c2nccc[n+]2CC1(O)c1ccccc1 (racemic) [Compound 7],23.4 µM,24.8 µM,23.4 µM,5.89 µM,–
CCCCCCCCN1c2nccc[n+]2CC1(O)c1ccccc1 (racemic) [Compound 8],9.8 µM,18.9 µM,9.77 µM,11.2 µM,–
CCCCCCCCCN1c2nccc[n+]2CC1(O)c1ccccc1 (racemic) [Compound 9],8.3 µM,55.7 µM,8.26 µM,4.85 µM,–
CCCCCCCCCCN1c2nccc[n+]2CC1(O)c1ccccc1 (racemic) [Compound 10],15 µM,47 µM,15 µM,3.95 µM,–
CCCCCCCCCCCN1c2nccc[n+]2CC1(O)c1ccccc1 (racemic) [Compound 11],24.6 µM,> 800 µM,24.6 µM,28.6 µM,–
CCCCCCCCCCCCN1c2nccc[n+]2CC1(O)c1ccccc1 (racemic) [Compound 12],27.5 µM,> 800 µM,27.5 µM,9.63 µM,–
CCCCCCCCCCCCCN1c2nccc[n+]2CC1(O)c1ccccc1 (racemic) [Compound 13],81.6 µM,> 800 µM,81.6 µM,17 µM,–
CCCCCCCCCCCCCCN1c2nccc[n+]2CC1(O)c1ccccc1 (racemic) [Compound 14],180 µM,> 800 µM,180 µM,–,–
CCCCN1c2nccc[n+]2CC1(O)c1ccc(Cl)cc1 (racemic) [Compound 16],29.7 µM,24.9 µM,–,–,–
CC(C)CN1c2nccc[n+]2CC1(O)c1ccc(Cl)cc1 (racemic) [Compound 17],31.4 µM,83.4 µM,–,–,–
CCCCCN1c2nccc[n+]2CC1(O)c1ccc(Cl)cc1 (racemic) [Compound 18],32.6 µM,164 µM,–,–,–
CCCCCCN1c2nccc[n+]2CC1(O)c1ccc(Cl)cc1 (racemic) [Compound 19],13.7 µM,79.8 µM,13.7 µM,20.2 µM,–
"CC(C)(C)c1ccc(-c2cn(CCCNc3ncc(-c4ccc(Cl)c(Cl)c4)[nH]3)nn2)cc1 [R3=3,4-diClPh; R4=H; R9=p(t-Bu)Ph; n=3]",–,–,–,–,17.8 µM
